Data from PMC8960621, “Solution speciation and human serum protein binding of indium(III) complexes of 8-hydroxyquinoline, deferiprone and maltol” (Journal of Biological Inorganic Chemistry, 2022).

Key:
[1] = Fraction of non-dissociated tris-ligand complex at 10 μM, pH 7.40 (UV-vis and speciation calculation); assay type: physicochemical; conditions: pH 7.4, constants determined at 0.20 M KCl
Description: (§1) As a first step, interaction of the tris-ligand In(III) complexes with various LMM blood serum components was investigated and compared to that of GaQ3 studied formerly in our research group. The LMM compounds are considered to be more mobile than the high molecular mass components (HMM) such as proteins, and generally their reaction is characterized by faster kinetics. The role of serum compounds might have importance on the distribution of the In(III) complexes since they may be responsible for (partial) displacement of the originally coordinated ligand and they can also form mixed-ligand complexes. […] All the measurements in this work were performed at 25 °C as most of the stability constants used for the modeling calculations published in the literature were determined at this temperature. UV–vis spectra recorded for the tris-ligand complexes at 10 μM concentration (see Fig. S1a for InQ3) in this buffer show 94%, 90% and < 20% non-dissociated InQ3, InD3 and InM3, respectively, which corresponds well to the fractions obtained using the stability constants determined at 0.20 M KCl: 90% (InQ3), 86% (InD3) and 9% InM3 and 6% InM^2+. […]
For the preparation of stock solutions and samples, Milli-Q water was used. Exact concentration of ligand stock solutions was determined via pH-potentiometric titrations (vide infra). […]

[2] = target: T1, human serum albumin (HSA) (Homo sapiens, UniProt P02768); test: HSA binding by membrane ultrafiltration-UV-vis; conditions: 2.5 equiv. protein
T1 construct: purchased Sigma-Aldrich A8763

apoTf = target: T2, apoTf (Homo sapiens, UniProt P02787); test: apoTf fluorescence quenching; assay type: binding; conditions: λEM = 330 nm
T2 construct: purchased Sigma-Aldrich T2036
Experimental: Fluorescence quenching is a convenient technique to study the binding of metal ions at the iron-binding sites of apoTf since it results in reduced fluorescence intensity of Tf. Batch samples containing 1 μM apoTf and various amounts of In(III) compounds were prepared. […] The partial (and not complete) quenching of apoTf can be explained by the presence of numerous Tyr (26) and Trp (8) residues in the protein among which only a few are affected by the binding of In(III) at the iron-binding sites. Upon addition of InQ3, the quenching curve is more stretched and aims to lower intensities (Fig. 4b). Interaction of the non-dissociated complex InQ3 with apoTf cannot be excluded, the latter proposed interaction is realized via intermolecular binding mode and more likely takes place on site(s) other than the iron-binding pockets (vide infra).
Fluorescence studies were implemented by a Fluoromax (Horiba Jobin Yvon) fluorometer in 1 cm quartz cells. Samples contained 1 μM HSA or (apo)Tf and various protein-to-metal complex (or InCl3) ratios (up to complex/HSA = 1:30) were used. […] Intrinsic fluorescence of complex InQ3 was also followed at λEX = 367 nm, and λEM = 450 – 650 nm. In this setup, the complex concentration was ca. 10 or 20 μM, and protein (HSA, (apo)Tf) concentration was varied between 0 and 130 μM, and residual fluorescence of the proteins were subtracted if it was necessary. […]

[3] = parameters: method as in PMID 23089600; conditions: 10 μM, pH 7.4; cited from earlier work
[4] = parameters: method as in PMID 25398250; conditions: same LMM competitors in tenfold excess, investigated separately; cited from earlier work
[5] = target: T1, human serum albumin (HSA); parameters: method as in PMID 25398250; conditions: cited from earlier work
apo-transferrin (apoTf) = target: T3, apo-transferrin (apoTf) (Homo sapiens, UniProt P02787); conditions: similar conditions; cited from earlier work
T3 construct: purchased Sigma-Aldrich T2036

[6] = Interaction of tris-ligand complexes with low molecular mass serum components (phosphate, citrate, oxalate), UV-vis; assay type: physicochemical; conditions: tenfold excess of the LMM ligands (phosphate, citrate, oxalate), pH 7.4
Description: as §1, with “complexes. The complexes of In(III) and Ga(III) formed with HQ (InQ3, GaQ3), deferiprone (InD3) and maltol (InM3) were prepared in an aqueous solution by mixing the respective ligand and the metal ion in 3:1 ratio.” for “complexes.”

T1 sequence (P02768 25-609): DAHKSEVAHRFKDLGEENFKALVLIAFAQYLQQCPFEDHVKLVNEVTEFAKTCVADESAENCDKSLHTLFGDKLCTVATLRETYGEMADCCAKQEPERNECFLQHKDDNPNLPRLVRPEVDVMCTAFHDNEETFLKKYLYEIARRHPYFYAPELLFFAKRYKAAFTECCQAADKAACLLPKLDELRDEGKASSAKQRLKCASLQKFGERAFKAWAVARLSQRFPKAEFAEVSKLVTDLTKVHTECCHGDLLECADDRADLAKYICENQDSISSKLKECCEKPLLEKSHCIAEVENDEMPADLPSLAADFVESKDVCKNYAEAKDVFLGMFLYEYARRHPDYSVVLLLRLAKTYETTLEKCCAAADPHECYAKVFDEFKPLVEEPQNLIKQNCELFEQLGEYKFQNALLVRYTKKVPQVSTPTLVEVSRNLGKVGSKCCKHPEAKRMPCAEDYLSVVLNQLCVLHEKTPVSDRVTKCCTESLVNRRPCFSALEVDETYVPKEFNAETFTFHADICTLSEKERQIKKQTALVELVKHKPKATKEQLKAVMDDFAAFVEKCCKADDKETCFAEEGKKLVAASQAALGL
T2 sequence (P02787 20-698): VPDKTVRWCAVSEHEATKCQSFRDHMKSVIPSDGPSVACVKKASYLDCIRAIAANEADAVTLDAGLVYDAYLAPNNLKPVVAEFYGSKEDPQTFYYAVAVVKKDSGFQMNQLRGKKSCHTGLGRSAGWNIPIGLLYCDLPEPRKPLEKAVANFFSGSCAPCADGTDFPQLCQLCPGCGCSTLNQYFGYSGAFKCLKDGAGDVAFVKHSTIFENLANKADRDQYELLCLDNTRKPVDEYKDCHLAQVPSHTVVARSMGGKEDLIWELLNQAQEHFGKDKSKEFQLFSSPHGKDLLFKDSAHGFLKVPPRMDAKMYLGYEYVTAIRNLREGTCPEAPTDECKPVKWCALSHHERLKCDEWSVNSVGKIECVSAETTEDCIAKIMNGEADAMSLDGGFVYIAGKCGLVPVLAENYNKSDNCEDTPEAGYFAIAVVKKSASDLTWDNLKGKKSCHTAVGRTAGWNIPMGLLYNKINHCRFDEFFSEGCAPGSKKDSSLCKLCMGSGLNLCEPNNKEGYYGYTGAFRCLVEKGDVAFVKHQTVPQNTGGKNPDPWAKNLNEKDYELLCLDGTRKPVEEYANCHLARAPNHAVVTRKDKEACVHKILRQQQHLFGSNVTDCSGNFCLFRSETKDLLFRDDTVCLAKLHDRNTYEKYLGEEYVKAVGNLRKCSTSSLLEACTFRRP
T3 sequence (P02787 20-698): as above

Row | Compound | fraction of tris-ligand complex obtained using the stability constants [1] [%] | In(III) ion bound to the protein (deferiprone liberation) [2] | complex bound to HSA [2] | apoTf emission stabilized at % of the initial intensity (apoTf; 1 μM apoTf, λEX = 280 nm, pH 7.40) | breakpoint of the quenching curve, complex-to-Tf ratio (apoTf) | fraction of tris-ligand complex [3] [%] | effect of LMM competitors on the complex [4] | logK’ (HSA binding constant) [5] | time of interaction with apoTf (apo-transferrin (apoTf)) [h] | complex remained [6]
1 | Cc1c([O-])c(=O)ccn1C.Cc1c([O-])c(=O)ccn1C.Cc1c([O-])c(=O)ccn1C.[In+3] [InD3] | 86 | ca. 7% | ca. 8% | ca. 83% | ca. 2 |  |  |  |  | 
2 | [Ga+3].[O-]c1cccc2cccnc12.[O-]c1cccc2cccnc12.[O-]c1cccc2cccnc12 [GaQ3, Tris(8-Quinolinolato)gallium(III), reference compound] |  |  |  |  |  | 86 | practically not affected | 4.04 | ≤ 1 | 
3 | [In+3].[O-]c1cccc2cccnc12.[O-]c1cccc2cccnc12.[O-]c1cccc2cccnc12 [InQ3, Tris(8-Quinolinolato)indium(III)] | 90 |  |  |  |  |  |  |  |  | ca. 34%
